Measurements from US20220194914A1, “METHODS AND SYSTEMS FOR PRODUCTION OF FURFURAL” (SHELL OIL COMPANY, priority 2020, published 2022).
Where two headings read alike, the source gives them in different places.

Experiments:
[1] = cited from earlier work; for Water solubility g/L (20° C.) / water solubility: 20° C.
[2] = octanol-water, cited from earlier work
[3] = Partitioning of components between the aqueous and non-aqueous phase of the biphasic solution (Example 4); assay type: physicochemical; details: aqueous pH 1 (H2SO4), calculated ionic strength 3.0 M (Na2SO4) / MN, 1:1 volume
Text: The non-aqueous phase solution contains MN, PBA, and furfural. The biphasic solution was mixed to allow adequate contact amongst the various components, and the biphasic solution was subsequently allowed to settle into the two phases: aqueous and non-aqueous.

Compound | Water solubility g/L (20° C.) ([1]; Table 1 boronic acids) | LogP ([2]; Table 1 boronic acids) | LogP ([2]; Table 2 solvents) | further results
CC(C)CB(O)O [(2-methylpropyl) boronic acid] | 33 g/L | 0.6 |  | 
CCc1ccc(B(O)O)cc1 [4-ethylphenyl boronic acid] |  | 2.58 |  | 
CCCCCCC [heptane] |  |  | 4.47 | Water solubility g/L (20° C.) ([1]; Table 2 solvents): 0.003 g/L
COc1ccccc1O [guaiacol] |  |  | 0.97 | Water solubility g/L ([1]; 25° C., Table 2 solvents): 18.7 (25° C.) g/L
OB(O)c1cccc2ccccc12 [naphthalene-1-boronic acid] | 0.3 g/L |  |  | 
CC(C)OC(C)C [Diisopropyl ether] |  |  | 2.03 | Water solubility g/L (20° C.) ([1]; Table 2 solvents): 1.7 g/L
CCc1ccccc1 [Ethylbenzene] |  |  | 2.96 | Water solubility g/L (20° C.) ([1]; Table 2 solvents): 0.15 g/L
CCCCB(O)O [butylboronic acid] | 25 g/L | 1.43 |  | 
Cc1cccc(O)c1 [Cresol (m)] |  |  | 1.94 | 
c1ccc2occc2c1 [Benzofuran] |  |  | 2.67 | Water solubility g/L (20° C.) ([1]; Table 2 solvents): insoluble
CCCCc1ccc(B(O)O)cc1 [4-butylphenyl boronic acid] | Insoluble | 3.64 |  | 
Methylnaphtalene [MN] |  |  |  | molar concentration in Aqueous Phase [3]: 2 mM; molar concentration in Non-aqueous Phase [3]: 7.03M
Cc1cccc(B(O)O)c1 [m-tolylboronic acid] | 25 g/L | 2.05 |  | 
O=S(=O)([O-])[O-].[Na+].[Na+] [Salt (based on 2Na), Na2SO4] |  |  |  | mol % of the component in Aqueous Phase with respect to the biphasic solution [3]: (>99 mol %); mol % of the component in Non-aqueous Phase with respect to the biphasic solution [3]: (0.2 mol %); molar concentration in Aqueous Phase [3]: 1M; molar concentration in Non-aqueous Phase [3]: 2 mM; mol % of the component in Aqueous Phase with respect to the biphasic solution ([3]; listed as Na2SO4): over 99 mol %
CCCCCCCCB(O)O [octylboronic acid] | Insoluble | 3.56 |  | water solubility [1]: water-insoluble; LogP [2]: 3.56
CCc1ccc(O)cc1 [4Et-phenol] |  |  | 2.47 | Water solubility g/L (20° C.) ([1]; Table 2 solvents): 6.1 g/L
O=Cc1ccco1 [Furfural] |  |  |  | mol % of the component in Non-aqueous Phase with respect to the biphasic solution [3]: (88 mol %); molar concentration in Aqueous Phase [3]: 46 mM; molar concentration in Non-aqueous Phase [3]: 352 mM; mol % of the component in Non-aqueous Phase with respect to the biphasic solution ([3]; listed as furfural): 88 mol %
OB(O)C1CCCCC1 [Cyclohexyl boronic acid] | 25 g/L | 1.90 |  | 
CCCCCCCCO [1-octanol] |  |  | 3.10 | Water solubility g/L (20° C.) ([1]; Table 2 solvents): 0.3 g/L
OB(O)c1ccc2ccccc2c1 [2-naphthylboronic acid] | 0.3 g/L | 2.82 |  | water solubility [1]: 0.03 wt %; LogP [2]: 2.82
OB(O)c1ccccc1 [phenylboronic acid] | 10 g/L | 1.59 |  | water solubility [1]: 1 wt %; molar concentration in Aqueous Phase [3]: 129 mM; molar concentration in Non-aqueous Phase [3]: 566 mM
CC(C)(C)c1ccc(B(O)O)cc1 [4-tert-Butylphenyl boronic acid] | Insoluble | 3.28 |  | 
COc1ccccc1 [anisole] |  |  |  | Water solubility g/L (20° C.) ([1]; Table 2 solvents): 1.5 g/L
Cc1ccccc1B(O)O [o-tolylboronic acid] | Slightly | 2.05 |  | 
OB(O)CCc1ccccc1 [Phenethyl boronic acid] | 1.8 g/L | 1.20 |  | 
Cc1cccc(C)c1O [2,6 xylenol] |  |  | 2.40 | 
